The values that follow come from ChEMBL document CHEMBL1134958 (Bioorg Med Chem Lett, 2002).

SMILES strings stand for the structures.

By half-life is commonly meant the time needed for the level to fall by half in the phase considered. By IC50 is commonly meant the concentration at which inhibition is half-maximal. Read a low IC50 as inhibition by little substance.

Series [1] is described as follows: Aqueous stability was evaluated as half life at 37 degree C at pH 7. The series is classed as physicochemical. Particulars: aqueous solution.
Series [2] can be described thus: Ratio of inhibitory activities against human tryptase to that of human plasmin.
The target in another series is Tryptase (Homo sapiens, UniProt Q9BZJ3+Q15661+Q9NRR2). The experiment in a line: Inhibitory concentration against human tryptase.
The nature of series [3]: Aqueous stability was evaluated as half life at 37 degree C at pH 9. In kind it is physicochemical. Particulars: aqueous solution.
The nature of series [4]: Ratio of inhibitory activities against human tryptase to that of human trypsin.
Series [5] can be described thus: Ratio of inhibitory activities against human tryptase to that of human thrombin.
Series [6] can be described thus: Ratio of inhibitory activities against human tryptase to that of human urokinase plasminogen activator (microPa).
Series [7] in a line: Ratio of inhibitory activities against human tryptase to that of human tissue plasminogen activator (tissue plasminogen activator).

As for `CC(C)C(OC(=O)N1CCN(C(=O)N2C(=O)[C@H](CC3CN(C(=N)N)C3)[C@H]2C(=O)O)CC1)C(C)C`, the figures for the half-life in series [1] and in series [3] were more than 2880 min and 864 min, respectively. In addition, the Ratio in series [2] was 394; in series [4], 7; in series [5], more than 2840; in series [6] it was 862; in series [7] it was 2840. The compound further came in with an IC50 at Tryptase of 12 nM.
The compound `CC(C)(C)NC(=O)N1CCN(C(=O)N2C(=O)[C@H](CCCN=C(N)N)[C@H]2C(=O)O)CC1` returned a half-life in series [1] of more than 2880 min. In addition, the Ratio is 430 in series [2]; 18 in series [4]; 2620 in series [5]; 135 in series [6]; more than 8250 in series [7].
As for `CC(C)C(OC(=O)N1CCN(C(=O)N2C(=O)[C@H](CC3CCCN(C(=N)N)C3)[C@H]2C(=O)O)CC1)C(C)C` (stereo in doubt; form 2) [listing 1 of 2 here], the IC50 at Tryptase is on record as 63 nM.
In the case of `CC(C)C(OC(=O)N1CCN(C(=O)N2C(=O)[C@H](CC3CCCN(C(=N)N)C3)[C@H]2C(=O)O)CC1)C(C)C` (stereo in doubt; form 1) [listing 1 of 2 here], the Ratio is more than 465 in series [2]; 258 in series [4]; more than 465 in series [5]; more than 465 in series [6]; more than 465 in series [7].
Turning to `CC(C)C(OC(=O)N1CCN(C(=O)N2C(=O)[C@H](CC3CCCN(C(=N)N)C3)[C@H]2C(=O)O)CC1)C(C)C` (single isomer, unassigned) [listing 1 of 2 here], the Ratio in series [2], in series [4], in series [5], in series [6] and in series [7] was more than 162 throughout.
`CN(CCCCc1ccccc1)C(=O)N1CCN(C(=O)N2C(=O)[C@H](CC3CCCN(C(=N)N)C3)[C@H]2C(=O)O)CC1` (stereo partly specified): the figures for the half-life in series [1] and in series [3] were more than 2880 min and 1430 min, respectively. Further, the Ratio in series [2] was 3620; in series [4], 2170; in series [5] it was more than 5500; in series [6], more than 5500; in series [7], more than 5500. Moreover, on Tryptase, the IC50 was found to be 6 nM.
Turning to `N=C(N)N1CCCC(C[C@H]2C(=O)N(C(=O)N3CCN(C(=O)CCCCCC4CCCCC4)CC3)[C@@H]2C(=O)O)C1` (stereo partly specified), the Ratio in series [2] was 8420; in series [4] it was 1680; in series [5], more than 17400; in series [6], 12100; in series [7], more than 17400. Moreover, the IC50 on Tryptase is listed as 1.9 nM.
On Tryptase, `CC(C)C(OC(=O)N1CCN(C(=O)N2C(=O)[C@H](CC3CCCN(C(=N)N)C3)[C@H]2C(=O)O)CC1)C(C)C` (single isomer, unassigned) [listing 2 of 2 here] registered an IC50 of 204 nM.
As to `CC(C)C(OC(=O)N1CCN(C(=O)N2C(=O)[C@H](CC3CCCN(C(=N)N)C3)[C@H]2C(=O)O)CC1)C(C)C` (stereo in doubt; form 2) [listing 2 of 2 here], the Ratio was more than 465 in series [2]; 364 in series [4]; more than 465 in series [5]; more than 465 in series [6]; more than 465 in series [7].
On to `N=C(N)N1CCC[C@H](C[C@H]2C(=O)N(C(=O)N3CCN(C(=O)CCCCCc4ccccc4)CC3)[C@@H]2C(=O)O)C1`, for which the half-life is more than 2880 min in series [1] and more than 1050 min in series [3]. Besides, the Ratio is more than 12900 in series [2]; more than 3390 in series [4]; more than 19400 in series [5]; more than 11800 in series [6]; more than 19400 in series [7]. In addition, the IC50 at Tryptase was less than 1.7 nM.
On to `CC(C)C(OC(=O)N1CCN(C(=O)N2C(=O)[C@H](CC3CCCN(C(=N)N)C3)[C@H]2C(=O)O)CC1)C(C)C` (stereo in doubt; form 1) [listing 2 of 2 here], for which the half-life in series [1] and in series [3] was more than 2880 min throughout. This compound had an IC50 on Tryptase of 71 nM.
For the compound `CC(C)C(OC(=O)N1CCN(C(=O)N2C(=O)[C@H](CCCN=C(N)N)[C@H]2C(=O)O)CC1)C(C)C`, the half-life in series [1] was more than 2880 min; in series [3], 438 min. Moreover, the Ratio in series [2] was 364; in series [4], 5; in series [5] it was more than 9170; in series [6], 843; in series [7], 9170. This compound also displayed an IC50 against Tryptase of 4 nM.
With `N=C(N)N1CCC[C@@H](C[C@H]2C(=O)N(C(=O)N3CCN(C(=O)CCCCCc4ccccc4)CC3)[C@@H]2C(=O)O)C1`, the figures for the half-life in series [1] and in series [3] were more than 2880 min and more than 1050 min, respectively. The Ratio in series [2] is more than 19400; in series [4], more than 3280; in series [5], more than 19400; in series [6], more than 19400; in series [7], more than 19400. The IC50 against Tryptase is recorded as less than 1.7 nM.
With `N=C(N)NCCC[C@H]1C(=O)N(C(=O)N2CCN(C(=O)CCCCCc3ccccc3)CC2)[C@@H]1C(=O)O`, the Ratio was more than 26 in series [2]; more than 8 in series [4]; more than 16500 in series [5]; more than 226 in series [6]; more than 16500 in series [7]. Moreover, the IC50 against Tryptase is less than 1.7 nM.
On to `N=C(N)N1CCCC(C[C@H]2C(=O)N(C(=O)N3CCN(C(=O)CCCCCc4ccccc4)CC3)[C@@H]2C(=O)O)C1` (stereo partly specified), for which the half-life in series [1] is more than 2880 min; in series [3] it was more than 1050 min. The Ratio in series [2] is more than 16300; in series [4], more than 1940; in series [5], more than 19400; in series [6], more than 17500; in series [7] it was more than 19400. Besides, the IC50 on Tryptase is reported as less than 1.7 nM.
`N=C(N)N1CCCC(C[C@H]2C(=O)N(C(=O)N3CCN(C(=O)NCCCCc4ccccc4)CC3)[C@@H]2C(=O)O)C1` (stereo partly specified): the figures for the half-life in series [1] and in series [3] were more than 2880 min and 720 min, respectively. Besides, the Ratio in series [2] is more than 16100; in series [4], more than 1360; in series [5] it was more than 19400; in series [6] it was more than 8780; in series [7] it was more than 19400. Moreover, the IC50 at Tryptase was less than 1.7 nM.
`N=C(N)N1CCCC(C[C@H]2C(=O)N(C(=O)N3CCN(C(=O)OCCCOc4ccccc4)CC3)[C@@H]2C(=O)O)C1` (stereo partly specified): the Ratio in series [2] was more than 92500; in series [4], more than 1680; in series [5], more than 19400; in series [6], more than 19400; in series [7] it was more than 19400. In addition, on Tryptase, the IC50 is less than 1.7 nM.
Take `N=C(N)N1CCCC(C[C@H]2C(=O)N(C(=O)N3CCN(C(=O)CCCCCc4ccccn4)CC3)[C@@H]2C(=O)O)C1` (stereo partly specified): the Ratio in series [2] was more than 7150; in series [4], 739; in series [5] it was more than 7150; in series [6], 5000; in series [7], more than 7150. For the same compound, the IC50 on Tryptase is 4.6 nM.
